Where two headings read alike, the source gives them in different places.
Experiments:
COX-1 = biological target: T1, COX-1 (Homo sapiens, UniProt P23219); experiment: Activity of inhibiting COX-1 in human blood (thromboxane B2 after ionomycin); format: cell-based; conditions: thromboxane B2 production
T1 construct: Human blood that had been sampled with the use of heparin (19 units/ml) was used; from tissue; host or cells: human whole blood (heparinised)
Protocol: Human blood that had been sampled with the use of heparin (19 units/ml) was used. Blood was fractionated to reaction tubes in amounts of 500 μl, the test compound or solvent was added thereto, and the resultants were incubated at 37° C. for 60 minutes. Dimethyl sulfoxide (DMSO) was used as a solvent for the test compound. Thereafter, ionomycin (30 nM) was added, and the reaction was allowed to proceed for 30 minutes. After the completion of the reaction, the supernatant (blood plasma) was recovered via centrifugation at 4° C., and the amount of thromboxane B2 in the plasma was quantified using a kit (519031, Cayman Chemical). The amount of thromboxane B2 produced via the addition of ionomycin was designated as 100%, and the concentration of the test compound that inhibits 50% of such reaction was represented by the IC50 value.

ICR mice = experiment: Partial sciatic nerve ligation model in mice (Seltzer model), von Frey test; format: in vivo; conditions: oral administration of 3 and 10 mg/kg of Example 27 and Example 40, respectively; 7 days after ligation; FIG. 1
Protocol: Analgesic effects of the compound of the present invention were evaluated using the partial sciatic nerve ligation model (Seltzer models) in mice, with which neuropathic pain can be evaluated.
Models of neuropathic pain were prepared in accordance with the method of Seltzer et al. ICR mice (5-week-old, male) were put under anesthesia with sodium pentobarbital (70 mg/kg, i.p.) to expose the sciatic nerve of the femoral region of the right posterior limb, and half of the sciatic nerve was strongly and triply ligated using 8-0 silk yarn (Natsume Seisakusho, Co., Ltd.) under a microscope (this group is designated as the “ligation group”). The group that had been subjected to exposure of the sciatic nerve without ligation was designated as a sciatic nerve control group (i.e., the “sham group”). […] The von Frey tests were performed 1 hour, 2 hours, and 3 hours after the oral administration for determining the pre-values prior to the administration of the test substances, which took place 7 days after the ligation surgery of sciatic nerve, and such values were designated as the indicators of analgesic effects. Gabapentin (30 mg/kg, po) was used as a positive control. As a solvent for the test compound, 27% HP—P—CD was used.
The obtained data were processed by performing a paired t-test amongst several groups and correcting the data via Dunnett's method.
The compound of Reference Example 78 is disclosed in the claims of JP Patent Publication (kohyo) No. 2006-517535 A, the compounds of Reference Example 93 and Reference Example 199 are disclosed in the claims of JP Patent No. 3003148, and the compound of Reference Example 103 is disclosed in the claims of JP Patent Publication (kohyo) No. 2006-514095 A. Accordingly, sulfate of Reference Example 78, toluenesulfonate of Reference Example 93, the free compound of Reference Example 199, and sulfate of Reference Example 103 were used as test compounds and evaluated using mouse models of partial sciatic nerve ligation, which were similar to those used in Example 79. 27% HP-β-CD was used as a solvent for the test compounds.

COX-2 = biological target: T2, COX-2 (Homo sapiens, UniProt P35354); experiment: Activity of inhibiting COX-2 in human blood (prostaglandin E2 after lipopolysaccharide); format: cell-based; conditions: prostaglandin E2 production
T2 construct: Human blood that had been sampled with the use of heparin (19 units/ml) was used; from tissue; host or cells: human whole blood (heparinised), aspirin-pretreated, stimulated with lipopolysaccharide
T2 sequence (P35354 18-604): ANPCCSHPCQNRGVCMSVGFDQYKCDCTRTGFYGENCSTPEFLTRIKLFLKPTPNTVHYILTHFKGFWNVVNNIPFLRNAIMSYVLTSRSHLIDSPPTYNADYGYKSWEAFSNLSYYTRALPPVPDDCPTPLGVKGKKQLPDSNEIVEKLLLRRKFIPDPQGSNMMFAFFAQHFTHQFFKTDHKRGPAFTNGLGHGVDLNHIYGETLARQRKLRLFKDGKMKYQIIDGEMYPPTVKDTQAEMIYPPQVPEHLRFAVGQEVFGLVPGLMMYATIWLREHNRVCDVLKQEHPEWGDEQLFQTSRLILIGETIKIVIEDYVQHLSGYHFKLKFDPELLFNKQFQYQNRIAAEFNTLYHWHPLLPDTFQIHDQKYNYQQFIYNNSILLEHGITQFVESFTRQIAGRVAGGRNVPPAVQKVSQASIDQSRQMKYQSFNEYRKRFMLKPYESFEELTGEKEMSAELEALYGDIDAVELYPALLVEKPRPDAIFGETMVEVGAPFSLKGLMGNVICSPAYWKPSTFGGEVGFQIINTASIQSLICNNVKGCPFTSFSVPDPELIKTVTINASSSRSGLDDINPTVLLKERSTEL
Protocol: Human blood that had been sampled with the use of heparin (19 units/ml) was used. Blood was fractionated to reaction tubes in amounts of 500 μl, aspirin (12 μg/ml) was added thereto, and the resultants were incubated at 37° C. for 6 hours. Thereafter, the test compound or solvent, and lipopolysaccharide (10 μg/ml) were added, and the reaction was allowed to proceed for 18 hours. After the completion of the reaction, the supernatant (blood plasma) was recovered via centrifugation at 4° C., and the amount of prostaglandin E2 in the plasma was quantified using a kit (514010, Cayman Chemical). Dimethyl sulfoxide (DMSO) was used as a solvent for the test compound. The amount of prostaglandin E2 produced via the addition of lipopolysaccharide was designated as 100%, and the concentration of the test compound that inhibits 50% of such reaction was represented by the IC50 value.

ddY mice [1] = experiment: Formalin test in mice; format: in vivo; conditions: oral 10 mg/kg, FIG. 2; for indicator of pain (licking time), phase II: 10 to 30 minutes after formalin; for indicator of pain (licking time), phase I: within 10 minutes after formalin
Protocol: ddY mice were grown for at least 16 hours under fasting conditions while free water intake was allowed, and a solution of the test compound or a solvent was orally administered thereto (0.1 ml/10 g). As a solvent for a solution of the test compound, 27% HP-β-CD was used. Thirty minutes after administration, 20 μl of a 2.5% formalin solution was subcutaneously administered to the ichnograms of right posterior legs of mice to induce a movement of licking. A movement of mice to lick the treated legs was designated as an indicator of pain, and the licking time was measured at 5-minute intervals for 30 minutes. The reaction that had occurred within 10 minutes immediately after administration of the formalin solution was designated as the phase I reaction, and the reaction that had occurred 10 to 30 minutes after administration was designated as the phase II reaction.

ddY mice [2] = experiment: Acetic acid writhing test in mice (analgesic effects); format: in vivo; conditions: for ED50: Mus musculus; for activity ratio (analgesic effects): subcutaneous administration
Protocol: ddY mice were grown for at least 16 hours under fasting conditions while free water intake was allowed, and a solution of the test compound or a solvent was orally administered thereto (0.1 ml/10 g). As a solvent for a solution of the test compound, dimethyl sulfoxide (DMSO):Tween 80:27% hydroxypropyl-P-cyclodextrin (hereafter abbreviated to “HP-β-CD”) (1:1:8) or 27% HP-β-CD was used. A solution of 0.6% acetic acid (0.1 ml/10 g) was administered intraperitoneally 45 minutes after administration to induce a writhing reaction (i.e., a movement of stretching or arching the body). The number of the writhing reactions that had occurred for the period from 10 minutes after administration of the acetic acid solution to 10 minutes thereafter was counted, and the number of times was designated as an indicator of pain. The number of times of reactions in the group to which a solvent had been administered was designated as 100%, and the concentration of the test compound that had inhibited 50% of such reaction was designated as the ED50 value.
The compound of Reference Example 78 is disclosed in the claims of JP Patent Publication (kohyo) No. 2006-517535 A, the compounds of Reference Examples 93 and 199 are disclosed in the claims of JP Patent No. 3003148, and the compound of Reference Example 103 is disclosed in the claims of JP Patent Publication (kohyo) No. 2006-514095 A. Thus, these compounds were compared with the compounds of the present invention having similar structures in terms of analgesic effects with oral administration (Table 4) or subcutaneous administration (Table 5). Dimethyl sulfoxide (DMSO):Tween 80:27% HP-β-CD (1:1:8) or 27% HP-β-CD was used as a solvent for the test compound.

[3] = sc, Table 5, subcutaneous administration, read-out: ED50 (mg/kg) [90% confidence limit]
[4] = oral administration 45 minutes before 0.6% acetic acid i.p., 50% inhibition of writhing reactions, read-out: ED50 (mg/kg)[90% confidence limit]

T1 sequence (P23219 24-599): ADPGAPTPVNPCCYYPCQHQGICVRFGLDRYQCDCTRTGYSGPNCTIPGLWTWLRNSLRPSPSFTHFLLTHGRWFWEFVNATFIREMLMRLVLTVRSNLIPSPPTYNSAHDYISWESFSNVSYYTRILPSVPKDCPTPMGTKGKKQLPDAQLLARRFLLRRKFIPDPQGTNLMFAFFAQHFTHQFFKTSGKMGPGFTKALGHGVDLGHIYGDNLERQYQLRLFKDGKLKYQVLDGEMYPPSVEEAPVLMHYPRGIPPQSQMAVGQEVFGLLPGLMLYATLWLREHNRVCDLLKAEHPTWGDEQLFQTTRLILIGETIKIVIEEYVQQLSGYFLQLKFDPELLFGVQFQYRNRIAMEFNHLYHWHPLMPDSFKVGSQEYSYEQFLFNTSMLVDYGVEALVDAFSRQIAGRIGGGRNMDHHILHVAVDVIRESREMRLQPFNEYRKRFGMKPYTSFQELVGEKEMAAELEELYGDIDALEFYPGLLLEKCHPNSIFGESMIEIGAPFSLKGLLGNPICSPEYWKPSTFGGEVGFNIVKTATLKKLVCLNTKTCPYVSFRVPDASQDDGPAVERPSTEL

IC50 (COX-1) [nM] | IC50 (COX-2) [µM] | Compound | results of the von Frey test (ICR mice) | indicator of pain (licking time), phase II (ddY mice [1]) | indicator of pain (licking time), phase I (ddY mice [1]) | ED50 (ddY mice [2]; [3]) [mg/kg] | ED50 (ddY mice [2]; [4]) [mg/kg] | activity ratio (analgesic effects) (ddY mice [2]; compared with Reference Example 93 (toluenesulfonate)) | activity ratio (analgesic effects) (ddY mice [2]; compared with Reference Example 199) | activity ratio (analgesic effects) (ddY mice [2]; compared with Reference Example 103 (sulfate))
< 100 | > 10 | COc1ccc(-c2nc(C3CCN(C(=O)N(C)O)CC3)sc2-c2ccc(OC)cc2)cc1 [Example 27, 4-(4,5-Bis(4-methoxyphenyl)thiazol-2-yl)-1-(N-hydroxy-N-methylcarbamoyl)piperidine] | significantly improved | significantly improved | significantly improved | 1.82 | 2.46 | at least 54 times | about 19 times | 
< 100 | > 10 | COc1ccc(-c2cc(C3CCN(C(=O)N(C)O)CC3)nn2-c2ccc(OC)cc2)cc1 [Example 40, 4-(1,5-Bis(4-methoxyphenyl)-1H-pyrazol-3-yl)-1-(N-hydroxy-N-methylcarbamoyl)piperidine] | significantly improved | significantly improved | significantly improved | 2.47 | 1.64 |  |  | at least 40 times
